According to patent US9315520B2, “2-amino-6-methyl-4,4a,5,6-tetrahydropyrano[3,4-d][1,3]thiazin-8a(8H)-yl-1,3-thiazol-4-yl amides” (Pfizer Inc., priority 2014, dated 2016):
Structures can show the parent of a compound that is named as a salt.

Each compound was assayed against BACE1 (Homo sapiens (Human), UniProt P56817) (assay: BACE1 Cell-Free Assay (fluorescence polarization)). Details: geometric mean of 2-4 determinations unless otherwise indicated (b: ≧5; c: single determination); read-out: BACE1 Cell-free Assay IC50.
BACE1, sequence (P56817 46-457): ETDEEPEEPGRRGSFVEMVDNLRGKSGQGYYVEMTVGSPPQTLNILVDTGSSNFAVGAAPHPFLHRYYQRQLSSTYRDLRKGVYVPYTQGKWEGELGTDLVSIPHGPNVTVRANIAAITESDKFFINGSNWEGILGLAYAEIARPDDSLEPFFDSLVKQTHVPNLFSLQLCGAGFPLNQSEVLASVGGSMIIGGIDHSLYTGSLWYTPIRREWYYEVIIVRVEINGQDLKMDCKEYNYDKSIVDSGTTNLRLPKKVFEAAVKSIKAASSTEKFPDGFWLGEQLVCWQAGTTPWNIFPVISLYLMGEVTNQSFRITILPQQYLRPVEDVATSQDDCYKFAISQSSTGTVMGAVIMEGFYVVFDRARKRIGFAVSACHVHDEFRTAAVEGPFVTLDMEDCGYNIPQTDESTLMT
Format: biochemical
Source text: This assay measures the inhibition of the beta-secretase enzyme as it cleaves a non-native peptide.
A synthetic APP substrate that can be cleaved by beta-secretase having N-terminal biotin and made fluorescent by the covalent attachment of Oregon Green at the Cys residue is used to assay beta-secretase activity in the presence or absence of the inhibitory compounds. […] The BACE1 enzyme is affinity purified material from conditioned media of CHO-K1 cells that have been transfected with a soluble BACE construct (BACE1deltaTM96His). […] Plates are covered and incubated for 3 hours at 37° C. […] The activity of the beta-secretase enzyme is detected by changes in the fluorescence polarization that occur when the substrate is cleaved by the enzyme.

Row | Structure (SMILES) | IC50 [µM]
1 | C[C@H]1C[C@H]2CSC(N)=N[C@@]2(c2nc(NC(=O)c3coc(C4CC4)n3)cs2)CO1 [Example 27, N-{2-[(4aR,6S,8aR)-2-amino-6-methyl-4,4a,5,6-tetrahydropyrano[3,4-d][1,3]thiazin-8a(8H)-yl]-1,3-thiazol-4-yl}-2-cyclopropyl-1,3-oxazole-4-carboxamide] | 1.31
2 | Cc1cnc(C(=O)Nc2csc([C@]34CO[C@@H](C)C[C@H]3CSC(N)=N4)n2)cn1 [Example 68, N-{2-[(4aR,6S,8aR)-2-amino-6-methyl-4,4a,5,6-tetrahydropyrano[3,4-d][1,3]thiazin-8a(8H)-yl]-1,3-thiazol-4-yl}-5-methylpyrazine-2-carboxamide, trifluoroacetate salt] | 2.11
3 | C[C@H]1C[C@H]2CSC(N)=N[C@@]2(c2nc(NC(=O)c3cnccn3)cs2)CO1 [Example 28, N-{2-[(4aR,6S,8aR)-2-amino-6-methyl-4,4a,5,6-tetrahydropyrano[3,4-d][1,3]thiazin-8a(8H)-yl]-1,3-thiazol-4-yl}pyrazine-2-carboxamide] | 0.647
4 | COc1ccc(C(=O)Nc2csc([C@]34CO[C@@H](C)C[C@H]3CSC(N)=N4)n2)nc1 [Example 19, N-{2-[(4aR,6S,8aR)-2-amino-6-methyl-4,4a,5,6-tetrahydropyrano[3,4-d][1,3]thiazin-8a(8H)-yl]-1,3-thiazol-4-yl}-5-methoxypyridine-2-carboxamide] | 0.259
5 | C[C@H]1C[C@H]2CSC(N)=N[C@@]2(c2nc(NC(=O)c3ncnn3C)cs2)CO1 [Example 74, N-{2-[(4aR,6S,8aR)-2-amino-6-methyl-4,4a,5,6-tetrahydropyrano[3,4-d][1,3]thiazin-8a(8H)-yl]-1,3-thiazol-4-yl}-1-methyl-1H-1,2,4-triazole-5-carboxamide, trifluoroacetate salt] | 4.56
6 | COc1cnc(C(=O)Nc2csc([C@]34CO[C@@H](C)C[C@H]3CSC(N)=N4)n2)c(C)n1 [Example 46, N-{2-[(4aR,6S,8aR)-2-amino-6-methyl-4,4a,5,6-tetrahydropyrano[3,4-d][1,3]thiazin-8a(8H)-yl]-1,3-thiazol-4-yl}-5-methoxy-3-methylpyrazine-2-carboxamide] | 0.32
7 | C[C@H]1C[C@H]2CSC(N)=N[C@@]2(c2nc(NC(=O)c3ccnn3C3CC3)cs2)CO1 [Example 85, N-{2-[(4aR,6S,8aR)-2-amino-6-methyl-4,4a,5,6-tetrahydropyrano[3,4-d][1,3]thiazin-8a(8H)-yl]-1,3-thiazol-4-yl}-1-cyclopropyl-1H-pyrazole-5-carboxamide, formate salt] | 4.24
8 | Cc1nn(C)cc1C(=O)Nc1csc([C@]23CO[C@@H](C)C[C@H]2CSC(N)=N3)n1 [Example 29, N-{2-[(4aR,6S,8aR)-2-amino-6-methyl-4,4a,5,6-tetrahydropyrano[3,4-d][1,3]thiazin-8a(8H)-yl]-1,3-thiazol-4-yl}-1,3-dimethyl-1H-pyrazole-4-carboxamide] | 1.99
9 | C[C@H]1C[C@H]2CSC(N)=N[C@@]2(c2nc(NC(=O)c3ncccn3)cs2)CO1 [Example 79, N-{2-[(4aR,6S,8aR)-2-amino-6-methyl-4,4a,5,6-tetrahydropyrano[3,4-d][1,3]thiazin-8a(8H)-yl]-1,3-thiazol-4-yl}pyrimidine-2-carboxamide, trifluoroacetate salt] | 1.08
10 | C[C@H]1C[C@H]2CSC(N)=N[C@@]2(c2nc(NC(=O)c3cnc(OCC4CC4)cn3)cs2)CO1 [Example 54, N-{2-[(4aR,6S,8aR)-2-amino-6-methyl-4,4a,5,6-tetrahydropyrano[3,4-d][1,3]thiazin-8a(8H)-yl]-1,3-thiazol-4-yl}-5-(cyclopropylmethoxy)pyrazine-2-carboxamide] | 0.161
11 | C[C@H]1C[C@H]2CSC(N)=N[C@@]2(c2nc(NC(=O)c3cnc(OC4CC4)cn3)cs2)CO1 [Example 55, N-{2-[(4aR,6S,8aR)-2-amino-6-methyl-4,4a,5,6-tetrahydropyrano[3,4-d][1,3]thiazin-8a(8H)-yl]-1,3-thiazol-4-yl}-5-(cyclopropyloxy)pyrazine-2-carboxamide] | 0.519
12 | Cc1nc(C)c(C(=O)Nc2csc([C@]34CO[C@@H](C)C[C@H]3CSC(N)=N4)n2)o1 [Example 59, N-{2-[(4aR,6S,8aR)-2-amino-6-methyl-4,4a,5,6-tetrahydropyrano[3,4-d][1,3]thiazin-8a(8H)-yl]-1,3-thiazol-4-yl}-2,4-dimethyl-1,3-oxazole-5-carboxamide, trifluoroacetate salt] | 0.74

Next, values leading:

Row | IC50 [µM] | Structure (SMILES)
13 | 0.017 | C#CCn1ccc(C(=O)Nc2csc([C@]34CO[C@@H](C)C[C@H]3CSC(N)=N4)n2)n1 [Example 89, N-{2-[(4aR,6S,8aR)-2-amino-6-methyl-4,4a,5,6-tetrahydropyrano[3,4-d][1,3]thiazin-8a(8H)-yl]-1,3-thiazol-4-yl}-1-(prop-2-yn-1-yl)-1H-pyrazole-3-carboxamide]
14 | 3.94 | C[C@H]1C[C@H]2CSC(N)=N[C@@]2(c2nc(NC(=O)c3cnn(C)c3)cs2)CO1 [Example 63, N-{2-[(4aR,6S,8aR)-2-amino-6-methyl-4,4a,5,6-tetrahydropyrano[3,4-d][1,3]thiazin-8a(8H)-yl]-1,3-thiazol-4-yl}-1-methyl-1H-pyrazole-4-carboxamide, trifluoroacetate salt]
15 | 0.018 | CC#CCOc1ccc(C(=O)Nc2csc([C@]34CO[C@@H](C)C[C@H]3CSC(N)=N4)n2)nc1 [Example 94, N-{2-[(4aR,6S,8aR)-2-amino-6-methyl-4,4a,5,6-tetrahydropyrano[3,4-d][1,3]thiazin-8a(8H)-yl]-1,3-thiazol-4-yl}-5-(but-2-yn-1-yloxy)pyridine-2-carboxamide]
16 | 0.025 | C[C@H]1C[C@H]2CSC(N)=N[C@@]2(c2nc(NC(=O)c3ncc(OC(F)F)cc3Cl)cs2)CO1 [Example 99, N-{2-[(4aR,6S,8aR)-2-amino-6-methyl-4,4a,5,6-tetrahydropyrano[3,4-d][1,3]thiazin-8a(8H)-yl]-1,3-thiazol-4-yl}-3-chloro-5-(difluoromethoxy)pyridine-2-carboxamide]
17 | 0.475 | C[C@H]1C[C@H]2CSC(N)=N[C@@]2(c2nc(NC(=O)C3CC3)cs2)CO1 [Example 107, N-{2-[(4aR,6S,8aR)-2-amino-6-methyl-4,4a,5,6-tetrahydropyrano[3,4-d][1,3]thiazin-8a(8H)-yl]-1,3-thiazol-4-yl}cyclopropanecarboxamide]
18 | 0.461 | C[C@H]1C[C@H]2CSC(N)=N[C@@]2(c2nc(NC(=O)C3(C)CCC3)cs2)CO1 [Example 109, N-{2-[(4aR,6S,8aR)-2-amino-6-methyl-4,4a,5,6-tetrahydropyrano[3,4-d][1,3]thiazin-8a(8H)-yl]-1,3-thiazol-4-yl}-1-methylcyclobutanecarboxamide]
19 | 0.161 | C[C@H]1C[C@H]2CSC(N)=N[C@@]2(c2nc(NC(=O)c3cnc(OCC(C)(F)F)cn3)cs2)CO1 [Example 58, N-{2-[(4aR,6S,8aR)-2-amino-6-methyl-4,4a,5,6-tetrahydropyrano[3,4-d][1,3]thiazin-8a(8H)-yl]-1,3-thiazol-4-yl}-5-(2,2-difluoropropoxy)pyrazine-2-carboxamide]
20 | 0.418 | COCCn1ccc(C(=O)Nc2csc([C@]34CO[C@@H](C)C[C@H]3CSC(N)=N4)n2)n1 [Example 88, N-{2-[(4aR,6S,8aR)-2-amino-6-methyl-4,4a,5,6-tetrahydropyrano[3,4-d][1,3]thiazin-8a(8H)-yl]-1,3-thiazol-4-yl}-1-(2-methoxyethyl)-1H-pyrazole-3-carboxamide]
21 | 0.22 | COCC(F)(F)c1cnc(C(=O)Nc2csc([C@]34CO[C@@H](C)C[C@H]3CSC(N)=N4)n2)cn1 [Example 100, N-{2-[(4aR,6S,8aR)-2-amino-6-methyl-4,4a,5,6-tetrahydropyrano[3,4-d][1,3]thiazin-8a(8H)-yl]-1,3-thiazol-4-yl}-5-(1,1-difluoro-2-methoxyethyl)pyrazine-2-carboxamide]
22 | 9.26 | CCc1cc(C(=O)Nc2csc([C@]34CO[C@@H](C)C[C@H]3CSC(N)=N4)n2)on1 [Example 71, N-{2-[(4aR,6S,8aR)-2-amino-6-methyl-4,4a,5,6-tetrahydropyrano[3,4-d][1,3]thiazin-8a(8H)-yl]-1,3-thiazol-4-yl}-3-ethyl-1,2-oxazole-5-carboxamide, trifluoroacetate salt]

Same assay, conditions: read-out: BACE1 Cell-free Assay IC50

Row | Structure (SMILES) | IC50 [µM]
23 | C[C@H]1C[C@H]2CSC(N)=N[C@@]2(c2nc(NC(=O)c3ccc(OCC(F)F)cn3)cs2)CO1 [Example 37, N-{2-[(4aR,6S,8aR)-2-amino-6-methyl-4,4a,5,6-tetrahydropyrano[3,4-d][1,3]thiazin-8a(8H)-yl]-1,3-thiazol-4-yl}-5-(2,2-difluoroethoxy)pyridine-2-carboxamide, formate salt] | 0.485
24 | C[C@H]1C[C@H]2CSC(N)=N[C@@]2(c2nc(NC(=O)c3cnc(C(F)(F)F)cn3)cs2)CO1 [Example 16, N-{2-[(4aR,6S,8aR)-2-amino-6-methyl-4,4a,5,6-tetrahydropyrano[3,4-d][1,3]thiazin-8a(8H)-yl]-1,3-thiazol-4-yl}-5-(trifluoromethyl)pyrazine-2-carboxamide, formate salt] | 0.193
25 | CCc1cc(C(=O)Nc2csc([C@]34CO[C@@H](C)C[C@H]3CSC(N)=N4)n2)n(C)n1 [Example 39, N-{2-[(4aR,6S,8aR)-2-amino-6-methyl-4,4a,5,6-tetrahydropyrano[3,4-d][1,3]thiazin-8a(8H)-yl]-1,3-thiazol-4-yl}-3-ethyl-1-methyl-1H-pyrazole-5-carboxamide, trifluoroacetate salt] | 0.369
